Data reported in US10160748B2 (AbbVie Inc., priority 2015, dated 2018).

These compounds were tested against TNFα trimer (Homo sapiens, UniProt P01375) (assay: TNFα FP Competitive Binding Assay). Conditions: FP binding assay; 20 nM TNFα trimer, 1 nM OregonGreen488 probe; read-out: TNF IC50.
TNFα trimer, sequence (P01375 77-233 limits assumed): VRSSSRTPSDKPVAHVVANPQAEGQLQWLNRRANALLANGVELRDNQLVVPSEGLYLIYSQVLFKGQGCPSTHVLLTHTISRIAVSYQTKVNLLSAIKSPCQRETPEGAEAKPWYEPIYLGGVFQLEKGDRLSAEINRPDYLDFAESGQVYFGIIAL
Outline: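 Compounds in 12-point 1:3 series, final top 100 μM (2.0% DMSO) or 338 μM (3.4% DMSO), displace 1 nM fluorescent probe from 20 nM TNFα trimer. After 18-24 h incubation plus 1 h rt equilibration, background-subtracted polarization measured and curves fitted with variable slope.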
Work on `CC(=O)N1CCC(O)(c2ncc(-c3ccc4c(=O)n(C)n(Cc5ccccc5OC(F)F)c4c3)cn2)CC1` [Example 32, 6-(2-(1-Acetyl-4-hydroxypiperidin-4-yl)pyrimidin-5-yl)-1-(2-(difluoromethoxy)benzyl)-2-methyl-1H-indazol-3(2H)-one] yielded an IC50 of 1000 to 10000 nM. Work on `CC(=O)N1CCN(c2ncc(-c3ccc4c(=O)n(C)n(Cc5cn(C(C)=O)cc5C(F)(F)F)c4c3)cn2)C[C@H]1C` [Example 119, (R)-6-(2-(4-Acetyl-3-methylpiperazin-1-yl)pyrimidin-5-yl)-1-((1-acetyl-4-(trifluoromethyl)-1H-pyrrol-3-yl)methyl)-2-methyl-1H-indazol-3(2H)-one] yielded an IC50 of under 1000 nM. `Cn1c(=O)c2ccc(-c3cnc(N4CCOCC4)nc3)cc2n1Cc1ccccc1OC(F)F` [Example 5, 1-(2-(Difluoromethoxy)benzyl)-2-methyl-6-(2-morpholinopyrimidin-5-yl)-1H-indazol-3(2H)-one] was tested, and the IC50 was under 1000 nM. Compound `CC(=O)N1CCN(c2ncc(-c3ccc4c(=O)n(C)n(Cc5cccc6c5SCC(=O)NC6)c4c3)cn2)C[C@H]1C` [Example 52, (R)-9-((6-(2-(4-Acetyl-3-methylpiperazin-1-yl)pyrimidin-5-yl)-2-methyl-3-oxo-2,3-dihydro-1H-indazol-1-yl)methyl)-4,5-dihydrobenzo[f][1,4]thiazepin-3(2H)-one] has an IC50 of 1000 to 10000 nM. In the case of `CC(Nc1ncc(-c2ccc3c(=O)n(C)n(Cc4ccccc4OC(F)F)c3c2)cn1)C(N)=O` (stereo not shown) [Example 10.4], the IC50 is reported as 1000 to 10000 nM. With `Cn1c(=O)c2ccc(-c3cnc(C(C)(C)O)nc3)cc2n1Cc1cc(Cc2ccn[nH]2)ccc1OC(F)F` [Example #133, 1-(5-((1H-Pyrazol-5-yl)methyl)-2-(difluoromethoxy)benzyl)-6-(2-(2-hydroxypropan-2-yl)pyrimidin-5-yl)-2-methyl-1H-indazol-3(2H)-one] the IC50 was under 1000 nM. `Cn1c(=O)c2ccc(-c3cnc(C4(O)CCN(C(=O)CN)CC4)nc3)cc2n1Cc1ccccc1OC(F)F` [Example 14.3] was tested, and the IC50 was 1000 to 10000 nM. `Cn1c(=O)c2ccc(-c3cnc(N4CCN(C=O)CC4)nc3)cc2n1Cc1cc(CO)ccc1OC(F)F` [Example 29, 4-(5-(1-(2-(Difluoromethoxy)-5-(hydroxymethyl)benzyl)-2-methyl-3-oxo-2,3-dihydro-1H-indazol-6-yl)pyrimidin-2-yl)piperazine-1-carbaldehyde] gave an IC50 of under 1000 nM. Compound `Cn1c(=O)c2ccc(-c3cnn(C4CCOCC4)c3)cc2n1Cc1ccccc1OC(F)F` [Example 5.7] has an IC50 of over 10000 nM. `Cc1cccc([C@@H](C)n2c3cc(-c4cnc(N5CCN(C(=O)CO)[C@H](C)C5)nc4)ccc3c(=O)n2C)c1` (single isomer, unassigned) [Example 118] gave an IC50 of 1000 to 10000 nM. In the case of `Cc1cc2c(=O)n(C)n(Cc3ccccc3OC(F)F)c2cc1-c1cnc(N2CCC(C(=O)O)CC2)nc1` [Example 13.3], the IC50 is reported as 1000 to 10000 nM. With `Cc1cnc(C(F)(F)F)c(Cn2c3cc(-c4cnc(N5CCN6C(=O)NC[C@H]6C5)nc4)ccc3c(=O)n2C)c1` [Example 29.1] the IC50 was 1000 to 10000 nM. Compound `Cc1ccc(OC(F)F)c(Cn2c3cc(-c4cnc(C5(C)CCNC5)nc4)ccc3c(=O)n2C)c1` (stereo not shown) [Example 87, 1-(2-(Difluoromethoxy)-5-methylbenzyl)-2-methyl-6-(2-(3-methylpyrrolidin-3-yl)pyrimidin-5-yl)-1H-indazol-3(2H)-one] has an IC50 of under 1000 nM. Work on `O=c1[nH]n(Cc2ccccc2OC(F)F)c2cc(-c3cnc(N4CCOCC4)nc3)ccc12` [Example 6.1, 1-(2-(difluoromethoxy)benzyl)-6-(2-morpholinopyrimidin-5-yl)-1H-indazol-3(2H)-one] yielded an IC50 of over 10000 nM. Compound `C[C@@H]1CN(c2ncc(-c3ccc4c(=O)n(C(F)F)n(Cc5ccccc5OC(F)F)c4c3)cn2)CCN1C(=O)CO` [Example 24.4] has an IC50 of under 1000 nM. Work on `Cc1ccc(OC(F)F)c(Cn2c3cc(-c4cnc(N5CCN(C(=O)CO)[C@@H](C)C5)nc4)ccc3c(=O)n2C)c1` [Example 36, (S)-1-(2-(Difluoromethoxy)-5-methylbenzyl)-6-(2-(4-(2-hydroxyacetyl)-3-methylpiperazin-1-yl)pyrimidin-5-yl)-2-methyl-1H-indazol-3(2H)-one] yielded an IC50 of under 1000 nM. For `Cn1c(=O)c2ccc(-c3cnc(N4CCN5C(=O)NC[C@@H]5C4)nc3)cc2n1Cc1cc(CO)ccc1OC(F)F` [Example 16.1, (R)-7-(5-(1-(2-(difluoromethoxy)-5-(hydroxymethyl)benzyl)-2-methyl-3-oxo-2,3-dihydro-1H-indazol-6-yl)pyrimidin-2-yl)hexahydroimidazo[1,5-a]pyrazin-3(2H)-one], the IC50 was under 1000 nM. Work on `C[C@@H]1CN(c2ncc(-c3cc4c(cc3F)c(=O)n(C)n4Cc3ccccc3OC(F)F)cn2)CCN1C(=O)CO` [Example 59, (R)-1-(2-(Difluoromethoxy)benzyl)-5-fluoro-6-(2-(4-(2-hydroxyacetyl)-3-methylpiperazin-1-yl)pyrimidin-5-yl)-2-methyl-1H-indazol-3(2H)-one] yielded an IC50 of under 1000 nM. `Cc1ccc(C(F)(F)F)c(Cn2c3cc(-c4cnc(N5CCN6C(=O)OC[C@H]6C5)nc4)ccc3c(=O)n2C)n1` [Example 19.4] was tested, and the IC50 was under 1000 nM. `Cn1c(=O)c2ccc(-c3cnc(N4CCOCC4)nc3)cc2n1Cc1c(F)cccc1OC(F)F` [Example 1, 1-(2-(Difluoromethoxy)-6-fluorobenzyl)-2-methyl-6-(2-morpholinopyrimidin-5-yl)-1H-indazol-3(2H)-one] gave an IC50 of under 1000 nM. With `Cn1c(=O)c2ccc(-c3cnc(N4CCOCC4)nc3)cc2n1Cc1ccccc1C#N` [Example 1.12] the IC50 was 1000 to 10000 nM. `Cc1ccc(C(F)(F)F)c(Cn2c3cc(-c4cnc(N5CCN6C(=O)NC[C@H]6C5)nc4)ccc3c(=O)n2C)n1` [Example 19.2] gave an IC50 of under 1000 nM. For `Cn1c(=O)c2ccc(-c3ccc(N4CCNC(=O)C4)nc3)cc2n1Cc1ccccc1OC(F)F` [Example 5.3], the IC50 was 1000 to 10000 nM. `Cn1c(=O)c2ccc(-c3cnc(C(C)(C)O)nc3)cc2n1Cc1cc(Cc2cn[nH]c2)ccc1OC(F)F` [Example 111, 1-(5-((1H-Pyrazol-4-yl)methyl)-2-(difluoromethoxy)benzyl)-6-(2-(2-hydroxypropan-2-yl)pyrimidin-5-yl)-2-methyl-1H-indazol-3(2H)-one] showed an IC50 of under 1000 nM. With `Cn1c(=O)c2ccc(-c3cnc(N4CC(O)C4)nc3)cc2n1Cc1ccccc1OC(F)F` [Example 2.9] the IC50 was 1000 to 10000 nM. `Cn1c(=O)c2ccc(-c3cnc(N4CCN5C(=O)NC[C@@H]5C4)nc3)cc2n1Cc1c(CO)cccc1OC(F)F` [Example 66, (R)-7-(5-(1-(2-(difluoromethoxy)-6-(hydroxymethyl)benzyl)-2-methyl-3-oxo-2,3-dihydro-1H-indazol-6-yl)pyrimidin-2-yl)hexahydroimidazo[1,5-a]pyrazin-3(2H)-one] gave an IC50 of under 1000 nM. In the case of `Cn1cc(Cn2c3cc(-c4cnc(N5CCN6C(=O)NC[C@H]6C5)nc4)ccc3c(=O)n2C)c(C(F)(F)F)c1` [Example 123, (S)-7-(5-(2-Methyl-1-((1-methyl-4-(trifluoromethyl)-1H-pyrrol-3-yl)methyl)-3-oxo-2,3-dihydro-1H-indazol-6-yl)pyrimidin-2-yl)hexahydroimidazo[1,5-a]pyrazin-3(2H)-one], the IC50 is reported as under 1000 nM. `Cn1c(=O)c2ccc(-c3cnc(N4CC[C@@H](C(=O)O)C4)nc3)cc2n1Cc1ccccc1OC(F)F` [Example 2.6] showed an IC50 of over 10000 nM. Work on `Cc1ccc(OC(F)F)c(Cn2c3cc(-c4cnc(N5CCN(C(=O)C(O)CN)[C@H](C)C5)nc4)ccc3c(=O)n2C)c1` (stereo partly shown) [Example 14.9] yielded an IC50 of under 1000 nM. In the case of `Cc1ccc(OC(F)F)c(Cn2c3cc(-c4cnc(C5(C)CCN(C)C5)nc4)ccc3c(=O)n2C)c1` (stereo not shown) [Example 88, 1-(2-(Difluoromethoxy)-5-methylbenzyl)-6-(2-(1,3-dimethylpyrrolidin-3-yl)pyrimidin-5-yl)-2-methyl-1H-indazol-3(2H)-one], the IC50 is reported as 1000 to 10000 nM. `Cn1c(=O)c2ccc(-c3cnc(N4CCN5C(=O)NC[C@H]5C4)nc3)cc2n1Cc1cc(Cl)ccc1C(F)(F)F` [Example 29.5] showed an IC50 of under 1000 nM. In the case of `Cn1c(=O)c2ccc(-c3cnc(N4CC(C5COC5)C4)nc3)cc2n1Cc1ccccc1OC(F)F` [Example 2.8], the IC50 is reported as 1000 to 10000 nM. Compound `Cc1ccc(OC(F)F)c(Cn2c3cc(-c4cnc(N5CCN(C(=O)CO)C[C@@H]5C)nc4)ccc3c(=O)n2C)c1` [Example 22.15] has an IC50 of under 1000 nM. Work on `CN1CCC(Nc2ncc(-c3ccc4c(=O)n(C)n(Cc5cc(CO)ccc5OC(F)F)c4c3)cn2)C1=O` (stereo not shown) [Example 16.2] yielded an IC50 of 1000 to 10000 nM. `Cn1c(=O)c2ccc(-c3cnc(N4CCOCC4)cn3)cc2n1Cc1ccccc1OC(F)F` [Example 10.2] was tested, and the IC50 was 1000 to 10000 nM. Compound `Cc1ccc(OC(F)F)c(Cn2c3cc(-c4cnc(N5CCN(C(=O)[C@H](C)N)[C@H](C)C5)nc4)ccc3c(=O)n2C)c1` [Example 14.11] has an IC50 of under 1000 nM. `Cc1cccc(C(C)n2c3cc(-c4cnc(N5CCN(C(=O)CO)[C@H](C)C5)nc4)ccc3c(=O)n2C)c1` (stereo partly drawn) [Example 116, 6-(2-((R)-4-(2-hydroxyacetyl)-3-methylpiperazin-1-yl)pyrimidin-5-yl)-2-methyl-1-(1-(m-tolyl)ethyl)-1H-indazol-3(2H)-one] showed an IC50 of under 1000 nM. For `CC(=O)N1CCN(c2ncc(-c3ccc4c(=O)n(Cc5ccncc5)n(Cc5ccccc5OC(F)F)c4c3)cn2)C[C@H]1C` [Example 27.6], the IC50 was 1000 to 10000 nM. For `CC(=O)N1CCN(c2ncc(-c3ccc4c(=O)n(C)n(Cc5c(CC#N)cccc5OC(F)F)c4c3)cn2)C[C@H]1C` [Example 49, (R)-2-(2-((6-(2-(4-Acetyl-3-methylpiperazin-1-yl)pyrimidin-5-yl)-2-methyl-3-oxo-2,3-dihydro-1H-indazol-1-yl)methyl)-3-(difluoromethoxy)phenyl)acetonitrile], the IC50 was under 1000 nM. In the case of `C[C@@H]1C[C@H](O)CCN1c1ncc(-c2ccc3c(=O)n(C)n(Cc4ccccc4OC(F)F)c3c2)cn1` [Example 10.9], the IC50 is reported as under 1000 nM. Compound `Cc1ccc(OC(F)F)c(Cn2c3nc(-c4cnc(C(C)(C)O)nc4)c(F)cc3c(=O)n2C)c1` [Example 26.7] has an IC50 of 1000 to 10000 nM.

Same assay, conditions: read-out: TNF IC50
`C[C@H](O)CNc1ccc(Cl)c(Cn2c3cc(-c4cnc(C(C)(C)O)nc4)ccc3c(=O)n2C)c1` [Example 30.1] showed an IC50 of 1000 to 10000 nM. In the case of `C[C@@H](O)CNc1ccc(Cl)c(Cn2c3cc(-c4cnc(C(C)(C)O)nc4)ccc3c(=O)n2C)c1` [Example 30.2], the IC50 is reported as 1000 to 10000 nM.
